Data published in US20230405094A1, “TREATMENT OR PREVENTION OF A DISEASE OR DISORDER” (Janssen Sciences Ireland Unlimited Company, priority 2020, published 2023).

How the values were obtained:
[1] = Plasma kinetics after single subcutaneous dose of rilpivirine nanosuspension with or without rHuPH20 (Example 1); type: in vivo, minipigs; details: minipig, single SC dose 900 mg/3 mL, N=3
Experimental: Six minipigs with body weights ranging from 20 to 25 kg at the start of the study were used. The minipigs were fasted overnight before dosing. Three minipigs were dosed subcutaneously in the loin with 0.19 mL of the hyaluronidase solution (10,000 U/mL) followed by 900 mg/3 mL of the drug nanosuspension at the same injection site (treatment group A). Three minipigs were dosed subcutaneously in the loin with the 900 mg/3 mL of the control drug suspension (treatment group B—control). The injection volume was 3 mL drug suspension in both treatment groups. Method—Sequential Administration • 1. Flip-off rHuPH20 solution vial flip cap and wipe with isopropyl alcohol wipe. Allow to dry. Attach an 18G transfer needle to a 1 mL syringe. • 2. Draw 0.35 mL into the syringe. • 3. Prime the syringe and set liquid level to 0.25 mL in the syringe. • 4. Remove transfer needle and attach syringe cap to 1 mL syringe. • 5. Mix rilpivirine by horizontally shaking the container 30 times over approximately 25 cm within approximately 10 s (a back and forth arm movement=2 times). Ensure well mixed/fully re-supended. • 6. Flip-off rilpivirine vial flip cap and wipe with isopropyl alcohol wipe. Allow to dry. • 7. Attach 18G transfer needle to 5 mL syringe. • 8. Invert vial and draw >3.2 mL into 5 mL syringe mL (or as much as can be removed from vial). Injecting 1-2 mL of air will facilitate draw. • 9. Detach needle and attach a syringe cap to 5 mL syringe • 10. Invert syringe. Wait 5 minutes for bubbles to settle. • 11. Attach a winged infusion set to the rHuPH20 1 mL syringe. Invert syringe and prime off air so that liquid forms at the tip of the needle. (0.19 mL of rHuPH20 should be in the line) • 12. […] Plasma samples were analysed individually by means of a validated LC-MS/MS method. Pharmacokinetic Data Analysis • The pharmacokinetic profile of the blood plasma samples was evaluated using non-compartmental pharmacokinetic analysis (using individual Cp vs time profiles). Mean plasma concentrations and PK parameters (Cmax, Tmax, t1/2 and AUC values) were measured and the results are provided in Table 1.

[2] = molecular target: AR (Homo sapiens, UniProt P10275); details: cited from earlier work
[3] = tested on: non-castrate hormone-sensitive and bicalutamide-resistant human prostate cancer xenograft models; details: cited from earlier work

Sequence of AR (P10275 whole entry): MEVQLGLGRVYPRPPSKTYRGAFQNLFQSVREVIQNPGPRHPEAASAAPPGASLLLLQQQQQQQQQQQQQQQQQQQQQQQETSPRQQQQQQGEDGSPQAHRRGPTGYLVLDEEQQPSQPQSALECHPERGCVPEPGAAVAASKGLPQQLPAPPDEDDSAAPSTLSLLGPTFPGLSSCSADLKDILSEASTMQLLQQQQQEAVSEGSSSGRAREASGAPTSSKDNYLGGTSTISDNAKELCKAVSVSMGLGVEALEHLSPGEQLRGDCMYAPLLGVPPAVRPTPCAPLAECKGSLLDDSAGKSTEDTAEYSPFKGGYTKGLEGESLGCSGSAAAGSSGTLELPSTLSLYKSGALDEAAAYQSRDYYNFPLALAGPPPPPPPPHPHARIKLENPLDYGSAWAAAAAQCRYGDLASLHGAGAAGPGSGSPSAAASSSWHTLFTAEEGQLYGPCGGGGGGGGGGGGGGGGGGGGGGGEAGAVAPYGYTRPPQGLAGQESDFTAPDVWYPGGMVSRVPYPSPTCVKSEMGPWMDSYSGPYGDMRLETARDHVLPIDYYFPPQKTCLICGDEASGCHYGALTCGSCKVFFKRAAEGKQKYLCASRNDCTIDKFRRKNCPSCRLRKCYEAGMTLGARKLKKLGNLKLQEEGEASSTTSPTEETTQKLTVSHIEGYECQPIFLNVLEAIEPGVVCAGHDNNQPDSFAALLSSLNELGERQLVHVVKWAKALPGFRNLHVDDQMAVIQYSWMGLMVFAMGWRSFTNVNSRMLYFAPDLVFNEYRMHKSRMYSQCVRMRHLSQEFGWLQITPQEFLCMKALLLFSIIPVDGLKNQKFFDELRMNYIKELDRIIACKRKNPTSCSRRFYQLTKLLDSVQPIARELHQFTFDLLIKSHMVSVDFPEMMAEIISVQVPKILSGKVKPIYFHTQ

SMILES: Cc1cc(/C=C/C#N)cc(C)c1Nc1ccnc(Nc2ccc(C#N)cc2)n1 [Rilpivirine, 4-[[4-[[4-[(1E)-2-cyanoethenyl]-2,6-dimethylphenyl]amino]-2-pyrimidinyl]amino]benzonitrile]
- Tlast ([1]; median): 2160 h
- λz [1]: 0.0009 ± 0.00009 h⁻¹
- AUC(0-inf) ([1]; plasma): 27000 ± 3200 ng·h/mL

SMILES: CC(O)c1cc(C(=O)N[C@@H](C)Cn2ccc(-c3ccc(C#N)c(Cl)c3)n2)n[nH]1 (stereo partly drawn) [Darolutamide, N-{(2S)-1-[3-(3-chloro-4-cyanophenyl)-1H-pyrazol-1-yl]propan-2-yl}-5-(1-hydroxyethyl)-1H-pyrazole-3-carboxamide]
- AR binding affinity [2]: high affinity

SMILES: CNC(=O)c1ccc(N2C(=S)N(c3cnc(C#N)c(C(F)(F)F)c3)C(=O)C23CCC3)cc1F [Apalutamide, 4-[7-(6-cyano-5-trifluoromethylpyridin-3-yl)-8-oxo-6-thioxo-5,7-diazaspiro[3.4]oct-5-yl]-2-fluoro-N-methylbenzamide]
- tumor response [3]: partial or complete tumor regression
